Source: US20080312301A1, “Substituted N-Benzo[D]Isoxazol-3-Yl-Amine Compounds as Inhibitors of Mglur5, Serotonin (5-Ht) and Noradrenaline Receptors, and Uses Thereof” (Gruenenthal GmbH, priority 2005, published 2008)

What follows are molecules tested against T1, mGluR5 receptor (Sus scrofa, UniProt I3LUI7) (assay: Affinity for the mGluR5 receptor: displacement of 3[H]-MPEP binding in pig brain homogenate). Details: 10 μM compound, 5 nM 3[H]-MPEP.
T1 construct: 450 μg of protein from brain homogenate are incubated with 5 nM^3[H]-MPEP; from tissue; host or cells: pig brain hemispheres without medulla, cerebellum and pons
T1 sequence (I3LUI7 19-1212): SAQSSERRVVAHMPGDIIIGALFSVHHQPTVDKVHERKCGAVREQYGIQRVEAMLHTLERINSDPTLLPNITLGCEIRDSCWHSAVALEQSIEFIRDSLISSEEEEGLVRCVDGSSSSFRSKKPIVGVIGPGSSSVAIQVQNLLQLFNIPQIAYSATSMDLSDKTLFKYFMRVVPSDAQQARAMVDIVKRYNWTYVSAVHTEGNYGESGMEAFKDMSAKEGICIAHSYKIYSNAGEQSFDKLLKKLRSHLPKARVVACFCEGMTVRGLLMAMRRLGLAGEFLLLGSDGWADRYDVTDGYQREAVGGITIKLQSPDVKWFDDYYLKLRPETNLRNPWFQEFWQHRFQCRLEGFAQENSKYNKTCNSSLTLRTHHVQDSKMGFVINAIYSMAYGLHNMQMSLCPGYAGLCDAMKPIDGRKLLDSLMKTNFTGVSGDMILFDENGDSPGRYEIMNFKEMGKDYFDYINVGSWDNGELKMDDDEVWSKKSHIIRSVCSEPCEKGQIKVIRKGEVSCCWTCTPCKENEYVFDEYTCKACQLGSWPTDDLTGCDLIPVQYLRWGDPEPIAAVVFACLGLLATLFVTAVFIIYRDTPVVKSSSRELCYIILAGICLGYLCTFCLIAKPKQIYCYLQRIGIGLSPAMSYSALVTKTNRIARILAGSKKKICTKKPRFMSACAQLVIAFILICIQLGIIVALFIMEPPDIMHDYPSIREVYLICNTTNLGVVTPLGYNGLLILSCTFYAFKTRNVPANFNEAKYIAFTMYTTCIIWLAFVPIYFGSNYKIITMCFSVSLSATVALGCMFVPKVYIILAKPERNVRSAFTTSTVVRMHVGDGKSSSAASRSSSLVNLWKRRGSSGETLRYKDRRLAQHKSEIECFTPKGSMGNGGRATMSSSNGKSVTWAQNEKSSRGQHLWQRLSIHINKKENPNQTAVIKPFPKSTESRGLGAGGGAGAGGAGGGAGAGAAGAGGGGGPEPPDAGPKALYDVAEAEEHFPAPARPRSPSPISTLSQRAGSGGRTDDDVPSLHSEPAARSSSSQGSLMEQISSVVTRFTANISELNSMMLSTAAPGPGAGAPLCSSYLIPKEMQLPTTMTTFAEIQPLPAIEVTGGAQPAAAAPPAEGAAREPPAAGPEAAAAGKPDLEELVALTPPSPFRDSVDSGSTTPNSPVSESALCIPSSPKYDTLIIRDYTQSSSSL
Method: II. Method for Determining the Affinity for the mGluR5 Receptor
In each case 450 μg of protein from brain homogenate are incubated with 5 nM^3[H]-MPEP (Tocris, order No. R1212) (MPEP=2-methyl-6-[…]) and the compounds to be investigated (10 μM in the assay) in buffer (as above) in 250 μl incubation mixtures in 96-well microtiter plates at room temperature for 60 min.
The filter plates were then dried at 55° C. for 60 min.
CCCCC(CC)C(=O)Nc1noc2ccccc12 (stereo not drawn) [Example 85, N-benzo[d]isoxazol-3-yl-2-ethylhexanamide] showed an inhibition at 10 µM of 63.2%. In the case of CCC(C)C(=O)Nc1noc2ccccc12 (stereo not drawn) [Example 86, N-benzo[d]isoxazol-3-yl-2-methylbutyramide], the inhibition at 10 µM is reported as 39.6%. In the case of O=C(Nc1noc2ccccc12)c1c(F)cccc1F [Example 87, N-benzo[d]isoxazol-3-yl-2,6-difluorobenzamide], the inhibition at 10 µM is reported as 37%. For O=C(Nc1noc2ccccc12)c1ccc(C(F)(F)F)c(F)c1 [Example 88, N-benzo[d]isoxazol-3-yl-3-fluoro-4-trifluoromethylbenzamide], the inhibition at 10 µM was 30%. O=C(Nc1noc2ccccc12)c1c(F)ccc(F)c1F [Example 89, N-benzo[d]isoxazol-3-yl-2,3,6-trifluorobenzamide] was tested, and the inhibition at 10 µM was 51.1%. Work on O=C(Nc1noc2ccccc12)c1cccnc1 [Example 90, N-benzo[d]isoxazol-3-ylnicotinamide] yielded an inhibition at 10 µM of 50.3%. Cc1cc(C(=O)Nc2noc3ccccc23)no1 [Example 91, 5-methylisoxazole-3-benzo[d]isoxazol-3-ylcarboxamide] was tested, and the “mGluR5 receptor inhibition of the 3[H]-MPEP binding in % (10 μM)” value (from here on “mGluR5 receptor inhibition … in % (10 μM)”) was 35.00%. In the case of O=C(Nc1noc2ccccc12)c1csc2ccccc12 [Example 92, benzo[b]thiophene-3-benzo[d]isoxazol-3-ylcarboxamide], the “mGluR5 receptor inhibition … in % (10 μM)” value is reported as 55.98%. O=C(Nc1noc2c(F)cccc12)c1ccccc1Cl [Example 93, 2-chloro-N-(7-fluorobenzo[d]isoxazol-3-yl)benzamide] was tested, and the inhibition at 10 µM was 35.4%. With CC(C)(C)c1ccc(C(=O)Nc2noc3c(F)cccc23)cc1 [Example 94, 4-tert-butyl-N-(7-fluorobenzo[d]isoxazol-3-yl)benzamide] the inhibition at 10 µM was 30.8%. Molecule O=C(Nc1noc2c(F)cccc12)c1ccccc1 [Example 95, N-(7-fluorobenzo[d]isoxazol-3-yl)benzamide] has an inhibition at 10 µM of 45.8%. O=C(Nc1noc2c(F)cccc12)c1ccc(F)cc1 [Example 96, 4-fluoro-N-(7-fluorobenzo[d]isoxazol-3-yl)benzamide] showed an inhibition at 10 µM of 30.5%. COc1ccccc1C(=O)Nc1noc2c(F)cccc12 [Example 98, N-(7-fluorobenzo[d]isoxazol-3-yl)-2-methoxybenzamide] gave an inhibition at 10 µM of 32%. Cc1ccccc1C(=O)Nc1noc2c(F)cccc12 [Example 99, N-(7-fluorobenzo[d]isoxazol-3-yl)-2-methylbenzamide] was tested, and the inhibition at 10 µM was 43%. With O=C(Nc1noc2cc(F)ccc12)c1cc(F)cc(F)c1 [Example 100, 3,5-difluoro-N-(6-fluorobenzo[d]isoxazol-3-yl)benzamide] the inhibition at 10 µM was 33.3%. For O=C(Nc1noc2cc(F)ccc12)c1cccc2ccccc12 [Example 101, naphthalene-1-(6-fluorobenzo[d]isoxazol-3-yl)carboxamide], the “mGluR5 receptor inhibition … in % (10 μM)” value was 48.99%. In the case of O=C(Nc1noc2cc(F)ccc12)C12CC3CC(CC(C3)C1)C2 [Example 102, adamantane-1-(6-fluorobenzo[d]isoxazol-3-yl)carboxamide], the “mGluR5 receptor inhibition … in % (10 μM)” value is reported as 52.11%. O=C(Nc1noc2ccc(F)cc12)c1ccccc1Br [Example 103, 2-bromo-N-(5-fluorobenzo[d]isoxazol-3-yl)benzamide] gave an inhibition at 10 µM of 41.2%. In the case of CC(C)(C)c1ccc(C(=O)Nc2noc3ccc(F)cc23)cc1 [Example 104, 4-tert-butyl-N-(5-fluorobenzo[d]isoxazol-3-yl)benzamide], the inhibition at 10 µM is reported as 44.6%. With O=C(Nc1noc2ccc(F)cc12)c1ccc(F)cc1F [Example 105, 2,4-difluoro-N-(5-fluorobenzo[d]isoxazol-3-yl)benzamide] the inhibition at 10 µM was 53.8%. In the case of O=C(Nc1noc2ccc(F)cc12)c1ccc2ccccc2c1 [Example 106, naphthalene-2-(5-fluorobenzo[d]isoxazol-3-yl)carboxamide], the “mGluR5 receptor inhibition … in % (10 μM)” value is reported as 33.72%. With CCCc1ccc(C(=O)Nc2noc3ccc(F)cc23)cc1 [Example 107, N-(5-fluorobenzo[d]isoxazol-3-yl)-4-propylbenzamide] the inhibition at 10 µM was 42.1%. Molecule O=C(Nc1noc2cc(Cl)ccc12)c1ccccc1Cl [Example 108, 2-chloro-N-(6-chlorobenzo[d]isoxazol-3-yl)benzamide] has an inhibition at 10 µM of 34.7%. Work on CC(C)(C)c1ccc(C(=O)Nc2noc3cc(Cl)ccc23)cc1 [Example 109, 4-tert-butyl-N-(6-chlorobenzo[d]isoxazol-3-yl)benzamide] yielded an inhibition at 10 µM of 35.2%. In the case of O=C(Nc1noc2cc(Cl)ccc12)c1ccc(F)cc1C(F)(F)F [Example 110, N-(6-chlorobenzo[d]isoxazol-3-yl)-4-fluoro-2-trifluoromethylbenzamide], the inhibition at 10 µM is reported as 36%. O=C(Nc1noc2cc(Cl)ccc12)c1cc(F)c(Cl)cc1Cl [Example 111, 2,4-dichloro-N-(6-chlorobenzo[d]isoxazol-3-yl)-5-fluorobenzamide] gave an inhibition at 10 µM of 43%. CCCCC(CC)C(=O)Nc1noc2cc(Cl)ccc12 (stereo not drawn) [Example 112, N-(6-chlorobenzo[d]isoxazol-3-yl)-2-ethylhexanamide] gave an inhibition at 10 µM of 35.1%. For CCC(C)C(=O)Nc1noc2cc(Cl)ccc12 (stereo not drawn) [Example 113, N-(6-chlorobenzo[d]isoxazol-3-yl)-2-methylbutyramide], the inhibition at 10 µM was 49.2%. Work on O=C(Nc1noc2cc(Br)ccc12)c1ccccc1Cl [Example 114, N-(6-bromobenzo[d]isoxazol-3-yl)-2-chlorobenzamide] yielded an inhibition at 10 µM of 37.5%. O=C(Nc1noc2cc(Br)ccc12)c1ccc(Cl)c(Cl)c1 [Example 115, N-(6-bromobenzo[d]isoxazol-3-yl)-3,4-dichlorobenzamide] gave an inhibition at 10 µM of 35.8%. For O=C(Nc1noc2cc(Br)ccc12)c1cccs1 [Example 116, thiophene-2-(6-bromobenzo[d]isoxazol-3-yl)carboxamide], the “mGluR5 receptor inhibition … in % (10 μM)” value was 37.71%. Work on CC(C)(C)CC(=O)Nc1noc2cc(Br)ccc12 [Example 117, N-(6-bromobenzo[d]isoxazol-3-yl)-3,3-dimethylbutyramide] yielded an inhibition at 10 µM of 30.8%. Cc1ccc2onc(NC(=O)c3ccccc3)c2c1 [Example 118, N-(5-methylbenzo[d]isoxazol-3-yl)benzamide] showed an inhibition at 10 µM of 69%. Molecule Cc1ccc2onc(NC(=O)c3ccc(Br)cc3)c2c1 [Example 119, 4-bromo-N-(5-methylbenzo[d]isoxazol-3-yl)benzamide] has an inhibition at 10 µM of 37.9%. Cc1ccc2onc(NC(=O)c3ccccc3Cl)c2c1 [Example 120, 2-chloro-N-(5-methylbenzo[d]isoxazol-3-yl)benzamide] was tested, and the inhibition at 10 µM was 47.9%. With Cc1ccc2onc(NC(=O)c3ccc(F)cc3)c2c1 [Example 121, 4-fluoro-N-(5-methylbenzo[d]isoxazol-3-yl)benzamide] the inhibition at 10 µM was 32.2%. Cc1ccc2onc(NC(=O)c3ccccc3F)c2c1 [Example 122, 2-fluoro-N-(5-methylbenzo[d]isoxazol-3-yl)benzamide] was tested, and the inhibition at 10 µM was 41%. For Cc1cccc(C(=O)Nc2noc3ccc(C)cc23)c1 [Example 123, 3-methyl-N-(5-methylbenzo[d]isoxazol-3-yl)benzamide], the “mGluR5 receptor inhibition … in % (10 μM)” value was 89.70%. Cc1ccc2onc(NC(=O)c3ccc(C(C)(C)C)cc3)c2c1 [Example 124, 4-tert-butyl-N-(5-methylbenzo[d]isoxazol-3-yl)benzamide] was tested, and the inhibition at 10 µM was 43.5%.
